# Data reported in paper PMC9358002, “Synthesis and Discovery of Ligustrazine–Heterocycle Derivatives as Antitumor Agents” (Frontiers in Chemistry, 2022).
# Read-outs that look alike come from different tables or passages of the source.
# Tests used:
# Assay type in all cases: cell-based
# [1] = system: human breast cancer MDA-MB-231; test: MTT antiproliferative assay, MDA-MB-231; conditions: for IC50: MTT, 48 h, 0–50 μM, read-out: Antiproliferative activity IC50 ± SEM, MDA-MB-231; for SI, selectivity index: SI = IC50 (L929)/IC50 (MDA-MB-231)
# Procedure: (§1) The in vitro antiproliferative activity of 33 TMPH compounds was evaluated by MTT assay ([Medica et al., 2022]). Five types of TNBC-related cell lines (human breast cancer MCF-7 and MDA-MB-231, mouse breast cancer 4T1, mouse fibroblast L929, and human umbilical vein endothelial HUVEC cell lines) were used. The cell lines were obtained from the Shanghai Institute of Biochemistry and Cell Biology of the Chinese Academy of Sciences (Shanghai, China). The cell lines were cultured in DMEM supplemented with 1% penicillin–streptomycin solution (100×) and 10% FBS at 37°C under a humid atmosphere containing 5% CO2. After cell passage, cryopreservation, and resuscitation, the growth-inhibitory effects against the five cell lines were determined by MTT assay. The 33 TMPH compounds and the reference control drug cisplatin were dissolved in 0.1% DMSO solution. The cell lines were maintained in 96-well plates and subjected to each test compound (0–50 μM) at 37°C for 48 h. After treatment with 1 mg/ml MTT solution for 4 h, the formazan crystals were dissolved in each well. A microplate reader (Varioskan Flash 3001, Thermo Scientific) was used to determine the cell viability at 490 nm, and each experiment was repeated four times. The collected data were expressed as the mean ± SEM. The inhibitory concentration of the 34 compounds at 50% (IC50) was calculated via concentration–inhibition relationship regression by SPSS software.
# [2] = system: human breast cancer MCF-7; test: MTT antiproliferative assay, MCF-7; conditions: 0–50 μM, read-out: Antiproliferative activity IC50 ± SEM, MCF-7
# Procedure: as §1
# mouse breast cancer 4T1 = test: MTT antiproliferative assay, 4T1; conditions: 48 h, 0–50 μM, read-out: Antiproliferative activity IC50 ± SEM, 4T1
# Procedure: as §1
# mouse fibroblast L929 = test: MTT antiproliferative assay, L929; conditions: 0–50 μM, read-out: Antiproliferative activity IC50 ± SEM, L929
# Procedure: as §1
# [3] = system: human umbilical vein endothelial HUVEC; test: MTT antiproliferative assay, HUVEC; conditions: 48 h, 0–50 μM, read-out: Antiproliferative activity IC50 ± SEM, HUVEC
# Procedure: as §1
# [4] = system: MCF-7, MDA-MB-231, 4T1, L929 and HUVEC cell lines; test: MTT antiproliferative assay, statements over all five tested cell lines; conditions: range over all five tested cell lines, read-out: IC50 values ranging over the tested cell lines
# Procedure: as §1
"IC50 ([1]; Homo sapiens, MDA-MB-231) [µM]","IC50 ([2]; Homo sapiens, MCF7, 48 h) [µM]",IC50 (mouse breast cancer 4T1; Mus musculus) [µM],SMILES,"SI, selectivity index [1]","IC50 (mouse fibroblast L929; Mus musculus, L929, 48 h) [µM]","IC50 ([3]; Homo sapiens, HUVEC) [µM]",IC50 [4] [µM],IC50 [1] [µM],IC50 ([2]; 48 h) [µM],IC50 (mouse breast cancer 4T1) [µM],IC50 (mouse fibroblast L929; 48 h) [µM],IC50 [3] [µM]
1.02 ± 0.15,> 20,1.94 ± 0.03,Cc1nc(C)c(C(=O)NCCCCCCCCNC(=O)c2ccc3ncccc3c2)nc1C [8–6],>19.61,> 20,> 20,,,,,,
8.45 ± 0.14,> 20,3.74 ± 0.19,Cc1nc(C)c(C(=O)NCCCCCCCCNC(=O)c2ccc3cc[nH]c3c2)nc1C [8–9],>2.37,> 20,> 20,,,,,,
2.44 ± 0.09,> 20,13.7 ± 0.24,Cc1nc(C)c(C(=O)NCCCCCCCCNC(=O)c2ccc3ccccc3c2)nc1C [8–13],6.42,15.7 ± 0.36,14.4 ± 0.03,,,,,,
8.41 ± 0.18,4.19 ± 0.15,> 20,Cc1nc(C)c(C(=O)NCCCCCCCCCCNC(=O)c2cc3ccccc3o2)nc1C [10–2],1.39,11.7 ± 0.81,16.6 ± 0.68,,,,,,
4.16 ± 0.25,18.5 ± 1.34,17.6 ± 1.16,Cc1nc(C)c(C(=O)NCCCCCCCCCCNC(=O)c2cc3ccccc3s2)nc1C [10–3],1.75,7.26 ± 0.16,> 20,,,,,,
13 ± 0.27,> 20,> 20,Cc1nc(C)c(C(=O)NCCCCCCCCCCNC(=O)c2cc3ccccc3[nH]2)nc1C [10–4],>1.54,> 20,> 20,,,,,,
5.76 ± 0.13,8.72 ± 0.49,> 20,Cc1nc(C)c(C(=O)NCCCCCCCCCCNC(=O)c2cnc3ccccc3c2)nc1C [10–5],0.90,5.18 ± 0.27,> 20,,,,,,
7.76 ± 0.14,6.49 ± 0.36,12 ± 0.54,Cc1nc(C)c(C(=O)NCCCCCCCCCCNC(=O)c2ccc3ncccc3c2)nc1C [10–6],1.15,8.91 ± 0.12,10.2 ± 0.86,1.61 to 19.5,,,,,
6.01 ± 0.11,3.37 ± 0.19,3.12 ± 0.14,Cc1nc(C)c(C(=O)NCCCCCCCCCCNC(=O)c2ccc3cc[nH]c3c2)nc1C [10–9],1.23,7.37 ± 0.57,9.63 ± 0.53,1.61 to 19.5,,,,,
4.6 ± 0.29,3.09 ± 0.13,9.88 ± 0.22,Cc1nc(C)c(C(=O)NCCCCCCCCCCNC(=O)c2ccc3ccccc3c2)nc1C [10–13],2.75,12.64 ± 0.12,10.5 ± 1.24,1.61 to 19.5,,,,,
2.12 ± 0.06,3.26 ± 0.16,5.13 ± 0.28,Cc1nc(C)c(C(=O)NCCCCCCCCCCCCNC(=O)c2cc3ccccc3s2)nc1C [12–3],3.61,7.65 ± 0.06,7.86 ± 0.01,1.61 to 19.5,,,,,
3.52 ± 0.12,3.23 ± 0.18,6.62 ± 0.14,Cc1nc(C)c(C(=O)NCCCCCCCCCCCCNC(=O)c2cc3ccccc3[nH]2)nc1C [12–4],>5.68,> 20,> 20,,,,,,
2.39 ± 0.12,1.36 ± 0.06,3.5 ± 0.06,Cc1nc(C)c(C(=O)NCCCCCCCCCCCCNC(=O)c2cnc3ccccc3c2)nc1C [12–5],1.75,4.18 ± 0.05,11.4 ± 0.44,1.61 to 19.5,,,,,
1.98 ± 0.15,2.04 ± 0.03,4.18 ± 0.09,Cc1nc(C)c(C(=O)NCCCCCCCCCCCCNC(=O)c2ccc3ncccc3c2)nc1C [12–6],2.70,5.35 ± 0.17,7.03 ± 0.05,1.61 to 19.5,,,,,

# Further lines, the compound ahead of its results:
SMILES,"IC50 ([1]; Homo sapiens, MDA-MB-231) [µM]","IC50 ([2]; Homo sapiens, MCF7, 48 h) [µM]",IC50 (mouse breast cancer 4T1; Mus musculus) [µM],"SI, selectivity index [1]","IC50 (mouse fibroblast L929; Mus musculus, L929, 48 h) [µM]","IC50 ([3]; Homo sapiens, HUVEC) [µM]",IC50 [4] [µM],IC50 [1] [µM],IC50 ([2]; 48 h) [µM],IC50 (mouse breast cancer 4T1) [µM],IC50 (mouse fibroblast L929; 48 h) [µM],IC50 [3] [µM]
Cc1nc(C)c(C(=O)NCCCCCCCCNC(=O)C=Cc2ccccc2)nc1C [8–1],2.52 ± 0.08,10.99 ± 0.06,> 20,6.58,16.58 ± 0.12,> 20,,,,,,
Cc1nc(C)c(C(=O)NCCCCCCCCNC(=O)c2cc3ccccc3o2)nc1C [8–2],6.1 ± 0.16,6.62 ± 0.15,19.86 ± 0.16,>3.28,> 20,4.27 ± 0.07,,,,,,
Cc1nc(C)c(C(=O)NCCCCCCCCNC(=O)c2cc3ccccc3s2)nc1C [8–3],3.39 ± 0.12,4.15 ± 0.02,19.5 ± 0.45,1.22,4.12 ± 0.32,9.78 ± 0.05,1.61 to 19.5,,,,,
Cc1nc(C)c(C(=O)NCCCCCCCCNC(=O)c2cc3ccccc3[nH]2)nc1C [8–4],5.77 ± 0.09,6.21 ± 0.14,> 20,1.85,10.7 ± 0.43,> 20,,,,,,
Cc1nc(C)c(C(=O)NCCCCCCCCNC(=O)c2cnc3ccccc3c2)nc1C [8–5],3.44 ± 0.16,4.96 ± 0.25,2.07 ± 0.04,1.01,3.49 ± 0.28,> 20,,,,,,
Cc1nc(C)c(C(=O)NCCCCCCCCNC(=O)C=Cc2ccc(Cl)cc2)nc1C [8–10],6.67 ± 0.16,2.84 ± 0.21,2.48 ± 0.24,0.82,5.48 ± 0.06,4.54 ± 0.01,1.61 to 19.5,,,,,
COc1ccc(C=CC(=O)NCCCCCCCCNC(=O)c2nc(C)c(C)nc2C)cc1OC [8–11],5.05 ± 0.02,> 20,12 ± 0.46,>3.96,> 20,10.35 ± 0.03,,,,,,
COc1cc(C=CC(=O)NCCCCCCCCNC(=O)c2nc(C)c(C)nc2C)cc(OC)c1OC [8–12],11.2 ± 0.12,5.38 ± 0.13,10.2 ± 0.32,>1.78,> 20,> 20,,,,,,
Cc1nc(C)c(C(=O)NCCCCCCCCCCNC(=O)C=Cc2ccccc2)nc1C [10–1],1.14 ± 0.08,2.61 ± 0.19,2.86 ± 0.18,3.82,4.36 ± 0.37,> 20,,,,,,
Cc1nc(C)c(C(=O)NCCCCCCCCCCNC(=O)C=Cc2ccc(Cl)cc2)nc1C [10–10],2.83 ± 0.09,2.93 ± 0.05,> 20,3.58,10.1 ± 0.52,11.2 ± 0.38,,,,,,
COc1ccc(C=CC(=O)NCCCCCCCCCCNC(=O)c2nc(C)c(C)nc2C)cc1OC [10–11],12.9 ± 1.41,3.23 ± 0.03,> 20,>1.55,> 20,> 20,,,,,,
COc1cc(C=CC(=O)NCCCCCCCCCCNC(=O)c2nc(C)c(C)nc2C)cc(OC)c1OC [10–12],3.41 ± 0.12,2.86 ± 0.08,> 20,>5.87,> 20,> 20,,,,,,
Cc1nc(C)c(C(=O)NCCCCCCCCCCCCNC(=O)C=Cc2ccccc2)nc1C [12–1],2.78 ± 0.37,1.95 ± 0.06,2.66 ± 0.05,1.71,4.75 ± 0.26,13.2 ± 1.12,1.61 to 19.5,,,,,
Cc1nc(C)c(C(=O)NCCCCCCCCCCCCNC(=O)c2cc3ccccc3o2)nc1C [12–2],3.38 ± 0.12,2.71 ± 0.07,3.97 ± 0.01,1.12,3.78 ± 0.14,11 ± 0.68,1.61 to 19.5,,,,,
Cc1nc(C)c(C(=O)NCCCCCCCCCCCCNC(=O)C=Cc2ccc(Cl)cc2)nc1C [12–10],2.42 ± 0.06,2.09 ± 0.06,1.63 ± 0.03,1.58,3.82 ± 0.07,12.37 ± 0.09,1.61 to 19.5,,,,,
COc1ccc(C=CC(=O)NCCCCCCCCCCCCNC(=O)c2nc(C)c(C)nc2C)cc1OC [12–11],2.42 ± 0.18,1.76 ± 0.02,2.32 ± 0.14,>8.26,> 20,> 20,,,,,,
"N.N.[Cl][Pt][Cl] [DDP, cisplatin, reference compound]",,,,2.64,,,,3.18 ± 0.06,6.25 ± 0.34,5.71 ± 0.16,8.38 ± 0.23,7.46 ± 0.45
"Cc1nc(C)c(C)nc1C [TMP, Ligustrazine]",> 20,> 20,> 20,,> 20,> 20,,,,,,
